Experimental data from patent US12594276B2, “Inhibitors of human immunodeficiency virus replication” (ViiV Healthcare UK (No.5) Limited, priority 2024, dated 2026).
Read-outs that look alike come from different tables or passages of the source.

How the values were obtained:
[1] = Compound cytotoxicity, XTT-based colorimetric assay; format: cell-based; conditions: human
How it was run: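 Cells seeded as for the antiviral assay but left uninfected (MT2). Compound exposure continued to day 4. XTT reagent added and colour read. CC50 calculated.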

[2] = tested on: recombinant NL4-3 virus (nef section replaced with Renilla luciferase gene) in MT-2 cells; assay: HIV cell culture assay (antiviral activity, luciferase readout); format: cell-based; conditions: Renilla, NL43, MT-2 cells infected for 4-5 days with recombinant NL4-3 Renilla luciferase virus
How it was run: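 Reporter virus is produced in 293T cells and its titer set in MT-2 cells by luciferase activity. MT-2 cells are then infected in the presence of serially diluted compound for 4-5 days. Luciferase is quantified and EC50 fitted to the median effect equation.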

[3] = uninfected MT2 cells, day 4, XTT, read-out: CC50

Row | SMILES | CC50 at 4 days [1, 3] | EC50 [2] | CC50 at 4 days [1]
1 | Cc1cc(C2CCC(F)(F)CC2)nc2nc([C@H](Cc3cc(F)cc(F)c3)NC(=O)Cn3nc(C(F)F)c4c3C(F)(F)[C@@H]3C[C@H]43)n(-c3ccc(Cl)c4c(NS(C)(=O)=O)nn(CCN5CCCCC5)c34)c(=O)c12 (atropisomer, axis not shown; (P)) [Example 269, N-[(1S)-1-[(3P)-3-{4-chloro-3-methanesulfonamido-1-[2-(piperidin-1-yl)ethyl]-1H-indazol-7-yl}-7-(4,4-difluorocyclohexyl)-5-methyl-4-oxo-3H,4H-pyrido[2,3-d]pyrimidin-2-yl]-2-(3,5-difluorophenyl)ethyl]-2-[(2S,4R)-9-(difluoromethyl)-5,5-difluoro-7,8-diazatricyclo[4.3.0.0^2,^4]nona-1(6),8-dien-7-yl]acetamide] | > 50 nM | 0.018 nM | –
2 | CC1(F)CCN(CCn2nc(NS(C)(=O)=O)c3c(Cl)ccc(-n4c([C@H](Cc5cc(F)cc(F)c5)NC(=O)Cn5nc(C(F)F)c6c5C(F)(F)[C@@H]5C[C@H]65)nc5nc(C6CCC(F)(F)CC6)ccc5c4=O)c32)C1 (stereo partly drawn) [Example 211, N-[(1S)-1-[(3P)-3-{4-chloro-1-[2-(3-fluoro-3-methylpyrrolidin-1-yl)ethyl]-3-methanesulfonamido-1H-indazol-7-yl}-7-(4,4-difluorocyclohexyl)-4-oxo-3H,4H-pyrido[2,3-d]pyrimidin-2-yl]-2-(3,5-difluorophenyl)ethyl]-2-[(2S,4R)-9-(difluoromethyl)-5,5-difluoro-7,8-diazatricyclo[4.3.0.0^2,^4]nona-1(6),8-dien-7-yl]acetamide] | > 50 nM | 0.012 nM | –
3 | CO[C@@H](C)CNC(=O)Cn1nc(NS(C)(=O)=O)c2c(Cl)ccc(-n3c([C@H](Cc4cc(F)cc(F)c4)NC(=O)Cn4nc(C5CC5)c5c4C[C@@H]4C[C@H]54)nc4nc(C5CCC(F)(F)CC5)cc(C)c4c3=O)c21 (atropisomer, axis not shown; (P)) [Example 395, N-[(1S)-1-[(3P)-3-[4-chloro-3-methanesulfonamido-1-({[(2S)-2-methoxypropyl]carbamoyl}methyl)-1H-indazol-7-yl]-7-(4,4-difluorocyclohexyl)-5-methyl-4-oxo-3H,4H-pyrido[2,3-d]pyrimidin-2-yl]-2-(3,5-difluorophenyl)ethyl]-2-[(2S,4S)-9-cyclopropyl-7,8-diazatricyclo[4.3.0.0^2,^4]nona-1(6),8-dien-7-yl]acetamide] | > 20 nM | 0.034 nM | –
4 | COCCCn1nc(NS(C)(=O)=O)c2c(Cl)ccc(-n3c([C@H](Cc4cc(F)cc(F)c4)NC(=O)Cn4nc(C(F)F)c5c4C(F)(F)[C@@H]4C[C@H]54)nc4nc(C5CCC(F)(F)CC5)cc(CN5CC(F)(F)C5)c4c3=O)c21 (atropisomer, axis not shown; (P)) [Example 538, N-[(1S)-1-[(3P)-3-[4-chloro-3-methanesulfonamido-1-(3-methoxypropyl)-1H-indazol-7-yl]-5-[(3,3-difluoroazetidin-1-yl)methyl]-7-(4,4-difluorocyclohexyl)-4-oxo-3H,4H-pyrido[2,3-d]pyrimidin-2-yl]-2-(3,5-difluorophenyl)ethyl]-2-[(2S,4R)-9-(difluoromethyl)-5,5-difluoro-7,8-diazatricyclo[4.3.0.0^2,4]nona-1(6),8-dien-7-yl]acetamide] | > 20 nM | 0.007 nM | –
5 | COCCCn1nc(NS(C)(=O)=O)c2c(Cl)ccc(-n3c([C@H](Cc4cc(F)cc(F)c4)NC(=O)Cn4nc(C(F)F)c5c4C(F)(F)[C@@H]4C[C@H]54)nc4nc(C5CCC(F)(F)CC5)cc(NCC(C)(C)N5CCOCC5)c4c3=O)c21 (atropisomer, axis not shown; (P)) [Example 546, N-[(1S)-1-[(3P)-3-[4-chloro-3-methanesulfonamido-1-(3-methoxypropyl)-1H-indazol-7-yl]-7-(4,4-difluorocyclohexyl)-5-{[2-methyl-2-(morpholin-4-yl)propyl]amino}-4-oxo-3H,4H-pyrido[2,3-d]pyrimidin-2-yl]-2-(3,5-difluorophenyl)ethyl]-2-[(2S,4R)-9-(difluoromethyl)-5,5-difluoro-7,8-diazatricyclo[4.3.0.0^2,^4]nona-1(6),8-dien-7-yl]acetamide] | > 20 nM | 0.017 nM | –
6 | Cc1cc(C2CCC(F)(F)CC2)nc2nc([C@H](Cc3cc(F)cc(F)c3)NC(=O)Cn3nc(C4CC4)c4c3C[C@@H]3C[C@H]43)n(-c3ccc(Cl)c4c(NS(C)(=O)=O)nn(CCN5CCCC5)c34)c(=O)c12 (atropisomer, axis not shown; (P)) [Example 273, N-[(1S)-1-[(3P)-3-{4-chloro-3-methanesulfonamido-1-[2-(pyrrolidin-1-yl)ethyl]-1H-indazol-7-yl}-7-(4,4-difluorocyclohexyl)-5-methyl-4-oxo-3H,4H-pyrido[2,3-d]pyrimidin-2-yl]-2-(3,5-difluorophenyl)ethyl]-2-[(2S,4S)-9-cyclopropyl-7,8-diazatricyclo[4.3.0.0^2,^4]nona-1(6),8-dien-7-yl]acetamide] | > 50 nM | 0.02 nM | –
7 | Cc1cc(C2(C)CCC(F)(F)CC2)nc2nc([C@H](Cc3cc(F)cc(F)c3)NC(=O)Cn3nc(C4CC4)c4c3C[C@@H]3C[C@H]43)n(-c3ccc(Cl)c4c(NS(C)(=O)=O)nn(CCN5CC(C)(C)OC(C)(C)C5)c34)c(=O)c12 (atropisomer, axis not shown; (P)) [Example 506, N-[(1S)-1-[(3P)-3-{4-chloro-3-methanesulfonamido-1-[2-(2,2,6,6-tetramethylmorpholin-4-yl)ethyl]-1H-indazol-7-yl}-7-(4,4-difluoro-1-methylcyclohexyl)-5-methyl-4-oxo-3H,4H-pyrido[2,3-d]pyrimidin-2-yl]-2-(3,5-difluorophenyl)ethyl]-2-[(2S,4S)-9-cyclopropyl-7,8-diazatricyclo[4.3.0.0^2,^4]nona-1(6),8-dien-7-yl]acetamide] | > 20 nM | 0.027 nM | –
8 | Cc1cc(C2(F)CCC(F)(F)CC2)nc2nc([C@H](Cc3cc(F)cc(F)c3)NC(=O)Cn3nc(C4CC4)c4c3C[C@@H]3C[C@H]43)n(-c3ccc(Cl)c4c(NS(C)(=O)=O)nn([C@@H](C)CN5C[C@H](F)C[C@H](F)C5)c34)c(=O)c12 (relative stereo) [Example 754, N-[(1S)-1-[(3P)-3-{4-chloro-1-[(2S)-1-[(3R,5S)-3,5-difluoropiperidin-1-yl]propan-2-yl]-3-methanesulfonamido-1H-indazol-7-yl}-5-methyl-4-oxo-7-(1,4,4-trifluorocyclohexyl)-3H,4H-pyrido[2,3-d]pyrimidin-2-yl]-2-(3,5-difluorophenyl)ethyl]-2-[(2R*,4R*)-9-cyclopropyl-7,8-diazatricyclo[4.3.0.0^2,^4]nona-1(6),8-dien-7-yl]acetamide] | > 20 nM | 0.075 nM | –
9 | Cc1cc(C2CCC(F)(F)CC2)nc2nc([C@H](Cc3cc(F)cc(F)c3)NC(=O)Cn3nc(C(F)F)c4c3C(F)(F)[C@@H]3C[C@H]43)n(-c3ccc(Cl)c4c(NS(C)(=O)=O)nn(CCN5[C@@H]6CC[C@H]5CC(F)(F)C6)c34)c(=O)c12 (atropisomer, axis not shown; (P)) [Example 246, N-[(1S)-1-[(3P)-3-(4-chloro-1-{2-[(1R,5S)-3,3-difluoro-8-azabicyclo[3.2.1]octan-8-yl]ethyl}-3-methanesulfonamido-1H-indazol-7-yl)-7-(4,4-difluorocyclohexyl)-5-methyl-4-oxo-3H,4H-pyrido[2,3-d]pyrimidin-2-yl]-2-(3,5-difluorophenyl)ethyl]-2-[(2S,4R)-9-(difluoromethyl)-5,5-difluoro-7,8-diazatricyclo[4.3.0.0^2,^4]nona-1(6),8-dien-7-yl]acetamide] | – | 0.028 nM | > 50 nM
10 | Cc1cc(C2CCC(F)(F)CC2)nc2nc([C@H](Cc3cc(F)cc(F)c3)NC(=O)Cn3nc(C(F)F)c4c3C(F)(F)[C@@H]3C[C@H]43)n(-c3ccc(Cl)c4c(NS(C)(=O)=O)nn(CCN5C[C@@H](C)O[C@@H](C)C5)c34)c(=O)c12 (atropisomer, axis not shown; (P)) [Example 159, N-[(1S)-1-[(3P)-3-(4-chloro-1-{2-[(2R,6S)-2,6-dimethylmorpholin-4-yl]ethyl}-3-methanesulfonamido-1H-indazol-7-yl)-7-(4,4-difluorocyclohexyl)-5-methyl-4-oxo-3H,4H-pyrido[2,3-d]pyrimidin-2-yl]-2-(3,5-difluorophenyl)ethyl]-2-[(2S,4R)-9-(difluoromethyl)-5,5-difluoro-7,8-diazatricyclo[4.3.0.0^2,4]nona-1(6),8-dien-7-yl]acetamide] | > 50 nM | 0.017 nM | –
11 | Cc1cc(C2(F)CCC(F)(F)CC2)nc2nc([C@H](Cc3cc(F)cc(F)c3)NC(=O)Cn3nc(C(F)F)c4c3C(F)(F)[C@@H]3C[C@H]43)n(-c3ccc(Cl)c4c(NS(C)(=O)=O)nn([C@H](C)CN5C[C@@H](C)O[C@@H](C)C5)c34)c(=O)c12 (atropisomer, axis not shown; (P)) [Example 729, N-[(1S)-1-[(3P)-3-{4-chloro-1-[(2R)-1-[(2R,6S)-2,6-dimethylmorpholin-4-yl]propan-2-yl]-3-methanesulfonamido-1H-indazol-7-yl}-5-methyl-4-oxo-7-(1,4,4-trifluorocyclohexyl)-3H,4H-pyrido[2,3-d]pyrimidin-2-yl]-2-(3,5-difluorophenyl)ethyl]-2-[(2S,4R)-9-(difluoromethyl)-5,5-difluoro-7,8-diazatricyclo[4.3.0.0^2,^4]nona-1(6),8-dien-7-yl]acetamide] | > 20 nM | 0.023 nM | –
